Measured values: PubChem BioAssay (NCI)
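All cell lines were grown in 96-well plates and treated with compound for 48 hours. The concentration for full growth arrest is given as TGI.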

Columns and labels:
Assay in all cases: DTP human tumour cell line panel, 48 h
786-0 renal = tested on: 786-0 renal
A498 renal = tested on: A498 renal
A549 NSCLC = tested on: A549 NSCLC
ACHN renal = tested on: ACHN renal
CAKI-1 renal = tested on: CAKI-1 renal
CCRF-CEM leukemia = tested on: CCRF-CEM leukemia
COLO 205 colon = tested on: COLO 205 colon
DLD-1 colon = tested on: DLD-1 colon
DMS 114 small cell lung = tested on: DMS 114 small cell lung
DMS 273 small cell lung = tested on: DMS 273 small cell lung
HCC-2998 colon = tested on: HCC-2998 colon
HCT-116 colon = tested on: HCT-116 colon
HCT-15 colon = tested on: HCT-15 colon
HL-60(TB) leukemia = tested on: HL-60(TB) leukemia
HOP-18 NSCLC = tested on: HOP-18 NSCLC
HOP-62 NSCLC = tested on: HOP-62 NSCLC
IGROV1 ovarian = tested on: IGROV1 ovarian
K-562 leukemia = tested on: K-562 leukemia
KM12 colon = tested on: KM12 colon
KM20L2 colon = tested on: KM20L2 colon
LXFL 529 NSCLC = tested on: LXFL 529 NSCLC
M14 melanoma = tested on: M14 melanoma
M19-MEL melanoma = tested on: M19-MEL melanoma
MALME-3M melanoma = tested on: MALME-3M melanoma
MOLT-4 leukemia = tested on: MOLT-4 leukemia
NCI-H226 lung = tested on: NCI-H226 lung
NCI-H460 lung = tested on: NCI-H460 lung
NCI-H522 lung = tested on: NCI-H522 lung
OVCAR-4 ovarian = tested on: OVCAR-4 ovarian
OVCAR-8 ovarian = tested on: OVCAR-8 ovarian
RPMI-8226 leukemia = tested on: RPMI-8226 leukemia
RXF 393 renal = tested on: RXF 393 renal
SF-268 CNS = tested on: SF-268 CNS
SF-539 CNS = tested on: SF-539 CNS
SK-MEL-2 melanoma = tested on: SK-MEL-2 melanoma
SK-MEL-28 melanoma = tested on: SK-MEL-28 melanoma
SK-MEL-5 melanoma = tested on: SK-MEL-5 melanoma
SK-OV-3 ovarian = tested on: SK-OV-3 ovarian
SN12C renal = tested on: SN12C renal
SNB-19 CNS = tested on: SNB-19 CNS
SNB-75 CNS = tested on: SNB-75 CNS
SNB-78 CNS = tested on: SNB-78 CNS
SR leukemia = tested on: SR leukemia
SW-620 colon = tested on: SW-620 colon
TK-10 renal = tested on: TK-10 renal
U251 CNS = tested on: U251 CNS
UACC-257 melanoma = tested on: UACC-257 melanoma
UACC-62 melanoma = tested on: UACC-62 melanoma
UO-31 renal = tested on: UO-31 renal
EKVX NSCLC = tested on: EKVX NSCLC
HOP-92 NSCLC = tested on: HOP-92 NSCLC
HT29 colon = tested on: HT29 colon
LOX IMVI melanoma = tested on: LOX IMVI melanoma
NCI-H23 lung = tested on: NCI-H23 lung
OVCAR-3 ovarian = tested on: OVCAR-3 ovarian
OVCAR-5 ovarian = tested on: OVCAR-5 ovarian
SF-295 CNS = tested on: SF-295 CNS
XF 498 CNS = tested on: XF 498 CNS

SMILES: CCSC(=O)C1(C)OC2CCCCC2C1=O (stereo unspecified)
- TGI (786-0 renal): > 100 µM
- TGI (A498 renal): > 100 µM
- TGI (A549 NSCLC): > 100 µM
- TGI (ACHN renal): > 100 µM
- TGI (CAKI-1 renal): > 100 µM
- TGI (CCRF-CEM leukemia): > 100 µM
- TGI (COLO 205 colon): > 100 µM
- TGI (DLD-1 colon): > 100 µM
- TGI (DMS 114 small cell lung): > 100 µM
- TGI (DMS 273 small cell lung): > 100 µM
- TGI (HCC-2998 colon): > 100 µM
- TGI (HCT-116 colon): > 100 µM
- TGI (HCT-15 colon): > 100 µM
- TGI (HL-60(TB) leukemia): > 100 µM
- TGI (HOP-18 NSCLC): > 100 µM
- TGI (HOP-62 NSCLC): > 100 µM
- TGI (IGROV1 ovarian): > 100 µM
- TGI (K-562 leukemia): > 100 µM
- TGI (KM12 colon): > 100 µM
- TGI (KM20L2 colon): > 100 µM
- TGI (LXFL 529 NSCLC): > 100 µM
- TGI (M14 melanoma): > 100 µM
- TGI (M19-MEL melanoma): > 100 µM
- TGI (MALME-3M melanoma): > 100 µM
- TGI (MOLT-4 leukemia): > 100 µM
- TGI (NCI-H226 lung): > 100 µM
- TGI (NCI-H460 lung): > 100 µM
- TGI (NCI-H522 lung): > 100 µM
- TGI (OVCAR-4 ovarian): > 100 µM
- TGI (OVCAR-8 ovarian): > 100 µM
- TGI (RPMI-8226 leukemia): > 100 µM
- TGI (RXF 393 renal): > 100 µM
- TGI (SF-268 CNS): > 100 µM
- TGI (SF-539 CNS): > 100 µM
- TGI (SK-MEL-2 melanoma): > 100 µM
- TGI (SK-MEL-28 melanoma): > 100 µM
- TGI (SK-MEL-5 melanoma): > 100 µM
- TGI (SK-OV-3 ovarian): > 100 µM
- TGI (SN12C renal): > 100 µM
- TGI (SNB-19 CNS): > 100 µM
- TGI (SNB-75 CNS): > 100 µM
- TGI (SNB-78 CNS): > 100 µM
- TGI (SR leukemia): > 100 µM
- TGI (SW-620 colon): > 100 µM
- TGI (TK-10 renal): > 100 µM
- TGI (U251 CNS): > 100 µM
- TGI (UACC-257 melanoma): > 100 µM
- TGI (UACC-62 melanoma): > 100 µM
- TGI (UO-31 renal): > 100 µM

SMILES: COc1ccc(/C(C#N)=C(/N)SCc2ccccc2Cl)cc1
- TGI (786-0 renal): 32.7 µM
- TGI (A498 renal): 42.3 µM
- TGI (A549 NSCLC): > 100 µM
- TGI (ACHN renal): > 10 µM
- TGI (CCRF-CEM leukemia): > 100 µM
- TGI (COLO 205 colon): 41.6 µM
- TGI (DLD-1 colon): 32.7 µM
- TGI (DMS 114 small cell lung): 37.1 µM
- TGI (EKVX NSCLC): 48.2 µM
- TGI (HCC-2998 colon): 31.7 µM
- TGI (HCT-116 colon): 32.8 µM
- TGI (HL-60(TB) leukemia): 63.4 µM
- TGI (HOP-18 NSCLC): 38.2 µM
- TGI (HOP-62 NSCLC): 34.1 µM
- TGI (HOP-92 NSCLC): 34.5 µM
- TGI (HT29 colon): 33.3 µM
- TGI (IGROV1 ovarian): > 100 µM
- TGI (K-562 leukemia): 49.5 µM
- TGI (KM12 colon): > 10 µM
- TGI (KM20L2 colon): 34.3 µM
- TGI (LOX IMVI melanoma): 29 µM
- TGI (LXFL 529 NSCLC): 31.2 µM
- TGI (M14 melanoma): 27.8 µM
- TGI (M19-MEL melanoma): 40.6 µM
- TGI (MALME-3M melanoma): 44.7 µM
- TGI (MOLT-4 leukemia): 85.2 µM
- TGI (NCI-H226 lung): 33.3 µM
- TGI (NCI-H23 lung): 34.2 µM
- TGI (NCI-H522 lung): 27.4 µM
- TGI (OVCAR-3 ovarian): 24.3 µM
- TGI (OVCAR-5 ovarian): 32.9 µM
- TGI (OVCAR-8 ovarian): > 10 µM
- TGI (RPMI-8226 leukemia): > 100 µM
- TGI (RXF 393 renal): 30.9 µM
- TGI (SF-268 CNS): 33.2 µM
- TGI (SF-295 CNS): 31.5 µM
- TGI (SF-539 CNS): 32.5 µM
- TGI (SK-MEL-2 melanoma): 32.6 µM
- TGI (SK-MEL-28 melanoma): 35.8 µM
- TGI (SK-OV-3 ovarian): 86.9 µM
- TGI (SN12C renal): 91.3 µM
- TGI (SNB-19 CNS): > 10 µM
- TGI (SNB-75 CNS): 63.6 µM
- TGI (SNB-78 CNS): 64.2 µM
- TGI (SR leukemia): > 100 µM
- TGI (SW-620 colon): 29.7 µM
- TGI (TK-10 renal): 94.7 µM
- TGI (U251 CNS): 32.6 µM
- TGI (UACC-257 melanoma): 33.7 µM
- TGI (UACC-62 melanoma): 25.4 µM
- TGI (UO-31 renal): > 10 µM
- TGI (XF 498 CNS): 30.3 µM
